One data set addresses mushroom tyrosinase. Briefly: Tyrosinase inhibition assay (o-diphenolase activity, L-DOPA as substrate). As to conditions: mushroom tyrosinase 30 units (28 nM), L-DOPA 0.5 mM, pH 6.8, absorbance at 475 nm, mean ± S.E.M., at least triplicates; read-out: IC50 ± SEM (in μM), tyrosinase inhibitory activity. The data set is classed as biochemical. The method, then: Tyrosinase inhibition assays were performed in 96-well microplate format using SpectraMax 340 microplate reader (Molecular Devices, CA, USA) according to the method developed by Hearing (1987). Briefly, first the compounds were screened for the o-diphenolase inhibitory activity of tyrosinase using L-DOPA as substrate. […] Compounds were dissolved in methanol to a concentration of 2.5%. 30 units of mushroom tyrosinase (28 nM from Sigma Chemical Co., USA) first preincubated with the compounds in […] Na-phosphate buffer (pH 6.8) for 10 min at 25° C. Then, the L-DOPA (0.5 mM) was added to the reaction mixture and the enzyme reaction was monitored by measuring the change in absorbance at 475 nm (at 37° C.) due to the formation of the DOPA chrome for 10 min. The percent inhibition of the enzyme was calculated as =[…], wherein the B and S are absorbance for the blank and samples, respectively. After screening, the compounds median inhibitory concentration (IC50) was also calculated. […] (Hearing et al., Int J Biochem, 19(12): 1141-71987).

The subject of another data set is Salmonella typhimurium. As to conditions: studies referred to, no data of the applicant; cited from earlier work.

Results on 10 compounds are retold here after patent US20090136434A1, “Tyrosinase enzyme inhibitors from fungal hydroxylation of tibolone” (HEJ Research Institute, priority 2007, published 2009).

The IC50 is the concentration needed to halve the response being measured. A word on the melting point: it is the temperature of the solid-liquid transition.

As to `N[C@@H](Cn1ccc(=O)c(O)c1)C(=O)O` [L-Mimosine, L-mimosine, reference compound], the IC50 at mushroom tyrosinase was found to be 3.68 ± 0.022 µM.

In the case of `C#CC1(O)CCC2C3C(C)C(O)C4=CC(=O)CCC4C3CCC21C` (stereo not drawn) [Metabolite 7, 6β-Hydroxy-Δ^4-Tibolone], the IC50 at mushroom tyrosinase came to 36.14 ± 0.21 µM.

For the compound `C#CC1(O)CCC2C3C(C)C(OC)C4=CC(=O)CCC4C3CCC21C` (stereo not drawn) [Metabolite 8, 6β-Methoxy-Δ^4-Tibolone], the IC50 on mushroom tyrosinase worked out at 25.15 ± 0.24 µM.

For `C#CC1(O)CCC2C3C(C)CC4=CC(=O)CCC4(O)C3CCC21C` (stereo not drawn) [Metabolite 4, 10β-Hydroxy-Δ^4-Tibolone], on mushroom tyrosinase, the IC50 is 119.4 ± 0.2 µM.

For `O=c1cc(CO)occ1O` [Kojic acid], the “mutagenic activity in a Salmonella typhimurium assay” value in the data set on Salmonella typhimurium is given as “weak mutagenic activity”.

`C#CC1(O)CC(O)C2C3C(C)CC4=C(CCC(=O)C4)C3C(O)CC21C` (stereo not drawn) [Metabolite 5, 11α,15β-Dihydroxytibolone] had a melting point of 208 to 210 °C. Besides, the IC50 at mushroom tyrosinase amounted to 5.12 ± 0.67 µM.

As for `C#CC1(O)CC(O)C2C3C(C)CC4=C(CCC(=O)C4)C3CCC21C` (stereo not drawn) [Metabolite 2, 15β-Hydroxytibolone], the IC50 on mushroom tyrosinase came to 50.86 ± 0.36 µM.

`C#CC1(O)CC(O)C2C3C(C)C=C4CC(=O)CCC4C3C(O)CC21C` (stereo not drawn) [Metabolite 6, 11α,15β-Dihydroxy-Δ^5-Tibolone] returned a melting point of 207 to 211 °C. For the same compound, on mushroom tyrosinase, the IC50 was 7.1 ± 0.13 µM.

For `C#CC1(O)CCC2C3C(C)CC4=CC(=O)CCC4C3CCC21C` (stereo not shown) [Metabolite 3, Δ^4-Tibolone], on mushroom tyrosinase, the IC50 is 8.19 ± 0.54 µM.

`C#CC1(O)CCC2C3C(CCC21C)C1=C(CC(=O)CC1)C(O)C3C` (stereo not drawn) [Metabolite 1, 6β-Hydroxytibolone] came in with a melting point of 202 to 205 °C. In addition, at mushroom tyrosinase, the IC50 was found to be 7.45 ± 0.21 µM.
